According to patent US8754190B2, “Controlled release from macromolecular conjugates” (Prolynx LLC, priority 2010, dated 2014):

Columns and labels:
[1] = pH 7.4
Experimental: Kinetics for release of N-(6-(2,4-dinitrophenyl)aminohexanoyl)-serine from O—(N-(9-fluorenylmethoxycarbonyl-N-phenyl)aminomethyl)-serine in 0.1 M HEPES buffer, 15 mM NaCl, pH 7.40, 37° C. are shown in FIG. 4.

[2] = Hydrolysis of carbamate in 50% human serum; assay type: in vitro ADME; settings: after 1 week at 37° C.
Source text: In general, compared to C—H, a) electron withdrawing groups at the beta position increase the rate; b) alkyl groups at the alpha position increase the rate; and c) aryl moieties at the alpha position decrease the rate.

[3] = Release of Nε-2,4-dinitrophenyl-L-lysine from model linker carbamates (β-eliminative cleavage), HPLC; assay type: physicochemical; settings: after 5 days at 37° C. and pH 7.4; no observable release, below estimated detection limit
Experimental: A series of model linker scaffolds having a range of functional groups as potential pKa modulators (substituted aromatics, ketones, nitriles, sulfones) were designed, prepared and linked via carbamate bonds to Ne-2,4-dinitrophenyl-L-lysine (Ne-DNP-Lys) for evaluation of release rates. DNP-Lys was chosen as the released moiety as it is water soluble and is a strong chromophore to permit HPLC-UV analysis.
The rates of release of Nε-2,4-dinitrophenyl-L-lysine from these compounds were determined at pH 7.4 or pH 8.3, 37° C., by HPLC analysis. Kinetic analyses of the release reactions were performed by HPLC (C18; linear methanol/water+0.5% HOAc gradient) using a UV/vis monitor at 350 nm. The areas under the Lys(DNP) (“P”) and starting material (“S”) peaks were integrated to determine extent of reaction (“R”) as R=P/(S+P). Reaction rates were calculated from the slope the line obtained by linear regression analysis of a plot of ln(1−R) versus time.

[4] = pH 7.4; remark: listed apart in the source

## O=C(CCCCCNc1ccc([N+](=O)[O-])cc1[N+](=O)[O-])N[C@@H](COCN(C(=O)OCC1c2ccccc2-c2ccccc21)c1ccccc1)C(=O)O [Example 11B]
[1]
  T1/2 of release of N-(6-(2,4-dinitrophenyl)aminohexanoyl)-serine: 16.7 days

## O=C(N[C@@H](CCCCNc1ccc([N+](=O)[O-])cc1[N+](=O)[O-])C(=O)O)OCc1ccccc1 [O-benzyl-N—(Nε-2,4-dinitrophenyl-L-lysine)-carbamate]
[2]
  hydrolysis in 50% human serum: no detectable hydrolysis
[3]
  release of Nε-2,4-dinitrophenyl-L-lysine (cleavage): < 0.25%

## O=C(O)[C@H](CSCN(C(=O)OCC1c2ccccc2-c2ccccc21)c1ccccc1)Nc1ccc([N+](=O)[O-])cc1[N+](=O)[O-] [Example 11C, S—(N-(9-Fluorenylmethoxycarbonyl-N-Phenylamino)Methyl)N-(2,4-Dinitrophenyl)-Cysteine]
[4]
  T1/2 of release of N-(2,4-dinitrophenyl)-cysteine: 4.17 days
